Several values for one entry are separate records, joined by “and”; a condition that tells them apart may be missing. Equal values may be shown once.
Test: Pharmacokinetic evaluation, plasma and brain concentrations
Format: in vivo, ICR mice
Source text: Distribution of a medicament in the body is one of the important indicators to determine the dose and efficacy of the medicament. Thus, excellent candidate compounds should have good pharmacokinetic characteristics. In addition, since the compound of the present invention is intended to be used for the treatment of Alzheimer's disease, which is a disease of the central nervous system, the distribution pattern of the compound in the brain and the blood is also one of the subjects to be investigated. In this experiment, compound 50561 was administered to mice […] or by gavage, and the concentrations of the compound in blood and brain were measured at specific time points to determine the pharmacokinetic parameters.
Forty-eight male ICR mice purchased from Shanghai Sippr-BK Lab. Animal Co. Ltd were used in this experiment. The oral group was fasted for 10-14 hours before administration, and feeding was restored 4 hours after administration. Samples were collected from the intravenous administration group 0.083 h, 0.25 h, 0.5 h, 1 h, 2 h, 4 h, 8 h, and 24 h after administration, respectively: while for the oral administration group, about 0.5 mL of blood was collected from the heart 0.25 h, 0.5 h, 1 h, 2 h, 4 h, 6 h, 8 h, and 24 h after administration, respectively. Heparin sodium was used for anticoagulation. Blood samples were collected and placed on ice, and plasma was separated by centrifugation (centrifugation conditions: 8000 rpm, 6 minutes, 4C). The collected plasma was stored at −80° C. before analysis. After collecting plasma samples, brain tissues were collected, washed with normal saline, water-absorbed by filter paper, weighed immediately, and then placed in labeled tubes (one tube for one brain tissue). The samples to be tested were temporarily placed on ice before being stored in a −80° C. refrigerator.
The analysis methods of biological samples and the analysis of all samples were done by Medicilon Pharmaceutical Technology (Shanghai) Co., Ltd. The intraday accuracy evaluation of the quality control samples was carried out while analyzing the samples, and the accuracy of over 66.7% of the quality control samples was required to be between 80-120%.
When calculating the pharmacokinetic parameters, the BLQ before Cmax (including “No peak”) was calculated as 0; BLQ occurring after Cmax (including “No peak”) was not involved in the calculation. WinNonlin Professional V 5.2 (Pharsight, USA) was adopted to calculate the following pharmacokinetic parameters: AUC(0-t), AUC(0-∞), T1/2, MRT(0-∞), Cmax, and Tmax. The tissue/plasma ratio was to be calculated by the following formula based on the blood concentration data at different time points: Tissue/plasma ratio (mL/g)=tissue blood concentration/plasma blood concentration.

SMILES: O=C1C=C(OCc2ccc(F)cc2)[C@H](Cc2ccccc2)N1 [Compound 50561]
- Brain/plasma ratio, Mean (IV 1 mg/kg, 0.083 hr): 2.499 mL/G
- Blood concentration, individual mice (IV 1 mg/kg, 0.083 hr, 1 mg/kg): 327.86 ng/mL and 145.16 ng/mL and 434.45 ng/mL
- Brain tissue concentration, individual mice (IV 1 mg/kg, 0.083 hr, 1 mg/kg): 853.63 ng/G and 383.96 ng/G
- Brain/plasma ratio, individual mice (IV 1 mg/kg, 0.083 hr, 1 mg/kg): 2.604 mL/G and 2.645 mL/G and 2.249 mL/G
- Brain/plasma ratio, Mean (IV 1 mg/kg, 0.25 hr): 2.342 mL/G
- Blood concentration, individual mice (IV 1 mg/kg, 0.25 hr, 1 mg/kg): 180.29 ng/mL and 215.73 ng/mL
- Brain tissue concentration, individual mice (IV 1 mg/kg, 0.25 hr, 1 mg/kg): 435.34 ng/G and 465.70 ng/G
- Brain/plasma ratio, individual mice (IV 1 mg/kg, 0.25 hr, 1 mg/kg): 2.451 mL/G and 2.415 mL/G and 2.159 mL/G
- Brain/plasma ratio, Mean (IV 1 mg/kg, 0.5 hr): 2.488 mL/G
- Blood concentration, individual mice (IV 1 mg/kg, 0.5 hr, 1 mg/kg): 98.13 ng/mL and 89.73 ng/mL
- Brain tissue concentration, individual mice (IV 1 mg/kg, 0.5 hr, 1 mg/kg): 251.60 ng/G and 211.84 ng/G
- Brain/plasma ratio, individual mice (IV 1 mg/kg, 0.5 hr, 1 mg/kg): 2.540 mL/G and 2.564 mL/G and 2.361 mL/G
- Brain/plasma ratio, Mean (IV 1 mg/kg, 1 hr): 3.007 mL/G
- Blood concentration, individual mice (IV 1 mg/kg, 1 hr, 1 mg/kg): 18.27 ng/mL and 8.99 ng/mL and 18.70 ng/mL
- Brain tissue concentration, individual mice (IV 1 mg/kg, 1 hr, 1 mg/kg): 35.43 ng/G and 51.45 ng/G
- Brain/plasma ratio, individual mice (IV 1 mg/kg, 1 hr, 1 mg/kg): 2.330 mL/G and 3.941 mL/G and 2.751 mL/G
- Blood concentration, individual mice (IV 1 mg/kg, 2 hr): BLQ
- Brain tissue concentration, individual mice (IV 1 mg/kg, 2 hr): BLQ
- Blood concentration, individual mice (IV 1 mg/kg, 4 hr): BLQ
- Brain tissue concentration, individual mice (IV 1 mg/kg, 4 hr): BLQ
- Blood concentration, individual mice (IV 1 mg/kg, 8 hr): BLQ
- Brain tissue concentration, individual mice (IV 1 mg/kg, 8 hr): BLQ
- Blood concentration, individual mice (IV 1 mg/kg, 24 hr): BLQ
- Brain tissue concentration, individual mice (IV 1 mg/kg, 24 hr): BLQ
- Brain/plasma ratio, Mean (PO 10 mg/kg, 0.25 hr): 1.877 mL/G
- Blood concentration, individual mice (PO 10 mg/kg, 0.25 hr, 10 mg/kg): 655.31 ng/mL and 548.11 ng/mL
- Brain tissue concentration, individual mice (PO 10 mg/kg, 0.25 hr, 10 mg/kg): 1042.09 ng/G and 1147.13 ng/G
- Brain/plasma ratio, individual mice (PO 10 mg/kg, 0.25 hr, 10 mg/kg): 1.948 mL/G and 1.590 mL/G and 2.093 mL/G
- Brain/plasma ratio, Mean (PO 10 mg/kg, 0.5 hr): 2.147 mL/G
- Blood concentration, individual mice (PO 10 mg/kg, 0.5 hr, 10 mg/kg): 631.98 ng/mL and 529.57 ng/mL
- Brain tissue concentration, individual mice (PO 10 mg/kg, 0.5 hr, 10 mg/kg): 2484.73 ng/G and 1280.85 ng/G and 1048.58 ng/G
- Brain/plasma ratio, individual mice (PO 10 mg/kg, 0.5 hr, 10 mg/kg): 2.435 mL/G and 2.027 mL/G and 1.980 mL/G
- Brain/plasma ratio, Mean (PO 10 mg/kg, 1 hr): 2.265 mL/G
- Blood concentration, individual mice (PO 10 mg/kg, 1 hr, 10 mg/kg): 599.81 ng/mL and 532.80 ng/mL
- Brain tissue concentration, individual mice (PO 10 mg/kg, 1 hr, 10 mg/kg): 1290.84 ng/G and 1149.69 ng/G
- Brain/plasma ratio, individual mice (PO 10 mg/kg, 1 hr, 10 mg/kg): 2.485 mL/G and 2.152 mL/G and 2.158 mL/G
- Brain/plasma ratio, Mean (PO 10 mg/kg, 2 hr): 2.329 mL/G
- Blood concentration, individual mice (PO 10 mg/kg, 2 hr, 10 mg/kg): 128.34 ng/mL and 83.99 ng/mL and 219.54 ng/mL
- Brain tissue concentration, individual mice (PO 10 mg/kg, 2 hr, 10 mg/kg): 277.53 ng/G and 206.08 ng/G and 520.70 ng/G
- Brain/plasma ratio, individual mice (PO 10 mg/kg, 2 hr, 10 mg/kg): 2.163 mL/G and 2.454 mL/G and 2.372 mL/G
- Brain/plasma ratio, Mean (PO 10 mg/kg, 4 hr): 2.052 mL/G
- Blood concentration, individual mice (PO 10 mg/kg, 4 hr, 10 mg/kg): 27.74 ng/mL and 18.40 ng/mL and 10.71 ng/mL
- Brain tissue concentration, individual mice (PO 10 mg/kg, 4 hr, 10 mg/kg): 65.84 ng/G and 44.67 ng/G and 14.52 ng/G
- Brain/plasma ratio, individual mice (PO 10 mg/kg, 4 hr, 10 mg/kg): 2.373 mL/G and 2.428 mL/G and 1.355 mL/G
